In article PMC7725003, “Systematically Studying the Optimal Amino Acid Distribution Patterns of the Amphiphilic Structure by Using the Ultrashort Amphiphiles” (Frontiers in Microbiology, 2020):
Where no end group is shown, it is not given here.

Key:
S. typhimurium 7731 = assay type: cell-based, Salmonella typhimurium; settings: 7731, 24 h
Method in brief: (§1)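 Using mid-log cultures at 0.5–1 × 10^6 CFU mL^–1 in MHB, peptides serially diluted in 0.2% BSA were tested over 24 h at 37°C. Inhibition of 95% (A492) set the MIC; >99.9% killing after overnight agar plating set the MBC.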

S. typhimurium 14028 = assay type: cell-based, Salmonella typhimurium; settings: 14028, 24 h
Method in brief: as §1

S. epidermidis 12228 = assay type: cell-based, Staphylococcus epidermidis; settings: 12228, 24 h
Method in brief: as §1

E. coli O78 = assay type: cell-based, Escherichia coli; settings: O78, 24 h
Method in brief: as §1

E. coli UB1005 = assay type: cell-based, Escherichia coli; settings: UB1005, 24 h
Method in brief: as §1

E. coli 25922 = assay type: cell-based, Escherichia coli; settings: 25922, 24 h
Method in brief: as §1

E. coli ATCC 25922 = assay: Salt sensitivity assay (MIC); assay type: cell-based, Escherichia coli; settings: for MIC, FeCl3: 4 μM FeCl3; for MIC, NH4Cl: 6 μM NH4Cl; for MIC, ZnCl2: 8 μM ZnCl2; for MIC, MgCl2: 1 mM MgCl2; for MIC, CaCl2: 2 mM CaCl2; for MIC, KCl: 4.5 mM KCl; for MIC, NaCl: 150 mM NaCl; for MIC, Control: no added salt, three independent assays
Method in brief: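 The salt sensitivity of peptides was tested against E. coli ATCC 25922 using a modified NCCLS broth microdilution MIC method. Mid-log bacteria were diluted in MHB to 0.5–1 × 10^6 CFU mL^–1 and mixed in equal volumes with peptides serially diluted in 0.2% BSA in 96-well plates. Physiological salt was added where specified, and the assay was done three independent times.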

Gram-negative bacteria [1] = settings: for GM MIC: geometric mean of MICs, 9 Gram-negative strains (Table 2); for TI, Gram-negative bacteria: therapeutic index TI = MHC/GM MIC
Method in brief: (§2)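 Broth microdilution adapted from NCCLS: mid-log bacteria diluted in MHB to 0.5–1 × 10^6 CFU mL^–1, mixed with peptides serially diluted in 0.2% BSA. After 24 h at 37°C, MIC taken as the lowest concentration inhibiting 95% of growth by absorbance at 492 nm. Assays repeated more than 3 times.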

Gram-positive bacteria [2] = settings: for GM MIC: geometric mean of MICs, 7 Gram-positive strains (Table 2); for TI, Gram-positive bacteria: therapeutic index TI = MHC/GM MIC
Method in brief: as §2

MRSA 43300 = assay type: cell-based, methicillin-resistant S. aureus; settings: 43300, 24 h
Method in brief: as §1

P. aeruginosa 27853 = assay type: cell-based, Pseudomonas aeruginosa; settings: 27853, 24 h
Method in brief: as §1

[3] = test system: Listeria monocytogenes CGMCC 1.1075; assay type: cell-based; settings: CGMCC 1.1075, 24 h
Method in brief: as §1

B. subtilis 63501 = assay type: cell-based, Bacillus subtilis; settings: 63501, 24 h
Method in brief: as §1

E. faecalis 29212 = assay type: cell-based, Enterococcus faecalis; settings: 29212, 24 h
Method in brief: as §1

E. coli K99 = settings: for MIC: MHB, 24 h 37°C, 95% growth inhibition
Protocol: (§3) The antimicrobial activities of the peptides were measured using a method adapted from the National Committee for Clinical Laboratory Standards (NCCLS) with some modifications ([Chou et al., 2016]). The specific procedure for these assays has been previously described. In brief, the bacterial cells were grown to a mid-logarithmic phase and diluted in MHB to an ultimate concentration of 0.5–1 × 10^6 CFU mL^–1. Subsequently, the peptides were consecutively diluted in a 0.2% BSA solution and then added to a bacterial solution in a 96-well plate at identical volumes. After incubation for 24 h at 37°C, the MICs were determined to be the lowest peptide concentration that inhibited 95% of the bacterial growth by monitoring the absorbance at 492 nm using a microplate reader. Subsequently, 50 μL of each incubation mixture was further transferred to agar plates and incubated overnight. […] Every assay was reproduced more than 3 times.

E. coli K88 = settings: for MIC: MHB, 24 h 37°C, 95% growth inhibition; for MBC: value in brackets, >99.9% of cells killed
Protocol: as §3

Gram-positive bacteria [4] = settings: geometric mean of MBCs, 7 Gram-positive strains (Table 2)
S. aureus 29213 [5] = assay: Salt sensitivity assay (MIC); assay type: cell-based, Staphylococcus aureus; settings: for MIC, FeCl3: 4 μM FeCl3; for MIC, NH4Cl: 6 μM NH4Cl; for MIC, ZnCl2: 8 μM ZnCl2; for MIC, MgCl2: 1 mM MgCl2; for MIC, CaCl2: 2 mM CaCl2; for MIC, KCl: 4.5 mM KCl; for MIC, NaCl: 150 mM NaCl; for MIC, Control: no added salt, three independent assays
Method in brief: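 MICs determined by broth microdilution in MHB with 0.5–1 × 10^6 CFU/mL, peptides serially diluted in 0.2% BSA, 24 h at 37°C. Medium supplemented with physiological salts (150 mM NaCl, 4.5 mM KCl, 6 μM NH4Cl, 8 μM ZnCl2, 1 mM MgCl2, 2mM CaCl2, 4 μM FeCl3). MIC = lowest concentration inhibiting 95% growth (A492).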

S. aureus 25923 = assay type: cell-based, Staphylococcus aureus; settings: 25923, 24 h
Method in brief: as §1

S. aureus 29213 [6] = assay type: cell-based, Staphylococcus aureus; settings: 29213, 24 h
Method in brief: as §1

S. pullorum 7913 = assay type: cell-based, Salmonella pullorum; settings: 7913, 24 h
Method in brief: as §1

Gram-negative bacteria [7] = settings: geometric mean of MBCs, 9 Gram-negative strains (Table 2)
[8] = test system: all of the tested bacterial strains; assay: Geometric mean of MICs, all tested bacterial strains; assay type: cell-based; settings: for GM, All: geometric mean of MICs across all tested strains; for TI, All: therapeutic index TI = MHC/GM MIC
Method in brief: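 Mid-log bacteria at 0.5–1 × 10^6 CFU mL^–1 in MHB with peptides serially diluted in 0.2% BSA, 24 h at 37°C. MIC is the lowest concentration giving 95% growth inhibition by A492. MBC is the lowest giving >99.9% kill on agar subculture, and the GM is taken over all strains.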

LRRRRLLLL-NH2 [L11] gave an MIC (S. typhimurium 7731) of over 64 µM, an MIC (S. typhimurium 14028) of over 64 µM and an MIC (S. epidermidis 12228) of over 64 µM. The MBC (E. coli O78) was 128 µM, the MIC (E. coli O78) was 64 µM and the MIC (E. coli UB1005) was over 64 µM. It also gave an MIC (E. coli 25922) of over 64 µM, an MIC, FeCl3 (E. coli ATCC 25922) of over 64 µM and an MIC, NH4Cl (E. coli ATCC 25922) of over 64 µM. The MIC, ZnCl2 (E. coli ATCC 25922) was over 64 µM, the MIC, MgCl2 (E. coli ATCC 25922) was over 64 µM and the MIC, CaCl2 (E. coli ATCC 25922) was over 64 µM. It also gave an MIC, KCl (E. coli ATCC 25922) of over 64 µM, an MIC, NaCl (E. coli ATCC 25922) of over 64 µM and an MIC, Control (E. coli ATCC 25922) of over 64 µM. The “GM MIC” value (Gram-negative bacteria [1]) was 101.59 µM, the “TI, Gram-negative bacteria” value (Gram-negative bacteria [1]) was 2.52 and the “GM MIC” value (Gram-positive bacteria [2]) was 57.97 µM. The “TI, Gram-positive bacteria” value (Gram-positive bacteria [2]) was 4.42, the MIC (MRSA 43300) was over 64 µM and the MIC (P. aeruginosa 27853) was over 64 µM. The MBC [3] was 16 µM, the MIC [3] was 8 µM and the MBC (B. subtilis 63501) was 16 µM. It also gave an MIC (B. subtilis 63501) of 8 µM, an MIC (E. faecalis 29212) of over 64 µM and an MIC (E. coli K99) of over 64 µM. The MIC (E. coli K88) was 32 µM, the MBC (E. coli K88) was 64 µM and the “GM MBC” value (Gram-positive bacteria [4]) was 70.66 µM. For the same substance, the MIC, FeCl3 (S. aureus 29213 [5]) was over 64 µM, the MIC, NH4Cl (S. aureus 29213 [5]) was over 64 µM and the MIC, ZnCl2 (S. aureus 29213 [5]) was over 64 µM. It also gave an MIC, MgCl2 (S. aureus 29213 [5]) of over 64 µM, an MIC, CaCl2 (S. aureus 29213 [5]) of over 64 µM and an MIC, KCl (S. aureus 29213 [5]) of over 64 µM. The MIC, NaCl (S. aureus 29213 [5]) was over 64 µM, the MIC, Control (S. aureus 29213 [5]) was over 64 µM and the MIC (S. aureus 25923) was over 64 µM. The MIC (S. aureus 29213 [6]) was over 64 µM, the MIC (S. pullorum 7913) was over 64 µM and the “GM MBC” value (Gram-negative bacteria [7]) was 118.51 µM. For the same substance, the “GM, All” value [8] was 79.48 µM and the “TI, All” value [8] was 3.22.

Work on LRRLRLRLL-NH2 [L3] yielded an MBC (S. typhimurium 7731) of 64 µM, an MIC (S. typhimurium 7731) of 32 µM and an MBC (S. typhimurium 14028) of 128 µM. For the same substance, the MIC (S. typhimurium 14028) was 64 µM, the MIC (S. epidermidis 12228) was over 64 µM and the MBC (E. coli O78) was 32 µM. For the same substance, the MIC (E. coli O78) was 16 µM, the MBC (E. coli UB1005) was 32 µM and the MIC (E. coli UB1005) was 16 µM. For the same substance, the MBC (E. coli 25922) was 16 µM, the MIC (E. coli 25922) was 8 µM and the MIC, FeCl3 (E. coli ATCC 25922) was 16 µM. The MIC, NH4Cl (E. coli ATCC 25922) was 16 µM, the MIC, ZnCl2 (E. coli ATCC 25922) was 16 µM and the MIC, MgCl2 (E. coli ATCC 25922) was 32 µM. The MIC, CaCl2 (E. coli ATCC 25922) was 32 µM, the MIC, KCl (E. coli ATCC 25922) was 8 µM and the MIC, NaCl (E. coli ATCC 25922) was 32 µM. For the same substance, the MIC, Control (E. coli ATCC 25922) was 8 µM, the “GM MIC” value (Gram-negative bacteria [1]) was 18.66 µM and the “TI, Gram-negative bacteria” value (Gram-negative bacteria [1]) was 13.72. For the same substance, the “GM MIC” value (Gram-positive bacteria [2]) was 64.00 µM, the “TI, Gram-positive bacteria” value (Gram-positive bacteria [2]) was 4.00 and the MIC (MRSA 43300) was over 64 µM. For the same substance, the MBC (P. aeruginosa 27853) was 128 µM, the MIC (P. aeruginosa 27853) was 64 µM and the MBC [3] was 32 µM. It also gave an MIC [3] of 16 µM, an MBC (B. subtilis 63501) of 16 µM and an MIC (B. subtilis 63501) of 8 µM. For the same substance, the MIC (E. faecalis 29212) was over 64 µM, the MIC (E. coli K99) was 16 µM and the MBC (E. coli K99; value in brackets, >99.9% of cells killed) was 32 µM. The MIC (E. coli K88) was 8 µM, the MBC (E. coli K88) was 16 µM and the “GM MBC” value (Gram-positive bacteria [4]) was 78.02 µM. The MIC, FeCl3 (S. aureus 29213 [5]) was over 64 µM, the MIC, NH4Cl (S. aureus 29213 [5]) was over 64 µM and the MIC, ZnCl2 (S. aureus 29213 [5]) was over 64 µM. For the same substance, the MIC, MgCl2 (S. aureus 29213 [5]) was over 64 µM, the MIC, CaCl2 (S. aureus 29213 [5]) was over 64 µM and the MIC, KCl (S. aureus 29213 [5]) was over 64 µM. The MIC, NaCl (S. aureus 29213 [5]) was over 64 µM, the MIC, Control (S. aureus 29213 [5]) was over 64 µM and the MIC (S. aureus 25923) was over 64 µM. It also gave an MIC (S. aureus 29213 [6]) of over 64 µM, an MBC (S. pullorum 7913) of 16 µM and an MIC (S. pullorum 7913) of 8 µM. The “GM MBC” value (Gram-negative bacteria [7]) was 37.33 µM, the “GM, All” value [8] was 32.00 µM and the “TI, All” value [8] was 8.00.
